Experiments:
Aurora kinase B-A = Aurora kinase B-A (Xenopus laevis, UniProt Q6DE08); assay: Inhibition of Xenopus laevis Aurora kinase B/INCEP complex using gamma-[32P]ATP incubated for 1 hr by autoradiography
Aurora kinase B = Aurora kinase B (Homo sapiens, UniProt Q96GD4); assay: Inhibition of human Aurora kinase B/INCEP complex expressed in Escherichia coli BL21 (DE3) using gamma-[32P]ATP incubated for 1 hr by autoradiography
Aurora kinase A = target: T1, Aurora kinase A (Homo sapiens, UniProt O14965)
T1 sequence (O14965 whole entry): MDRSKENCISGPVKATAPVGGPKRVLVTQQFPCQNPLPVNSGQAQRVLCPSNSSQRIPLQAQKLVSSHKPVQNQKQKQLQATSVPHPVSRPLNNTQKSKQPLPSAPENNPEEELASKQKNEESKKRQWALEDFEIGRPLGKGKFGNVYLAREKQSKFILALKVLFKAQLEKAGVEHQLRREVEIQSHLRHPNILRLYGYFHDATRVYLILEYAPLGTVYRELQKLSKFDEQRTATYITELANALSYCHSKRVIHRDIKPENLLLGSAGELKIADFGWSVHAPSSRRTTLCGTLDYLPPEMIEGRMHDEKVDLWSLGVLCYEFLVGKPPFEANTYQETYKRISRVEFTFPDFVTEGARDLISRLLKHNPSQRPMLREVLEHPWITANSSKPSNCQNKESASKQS
Description: Inhibition of human Aurora kinase A/TPX2 complex using gamma-[32P]ATP incubated for 1 hr by autoradiography

Aurora kinase B-A, sequence (Q6DE08 whole entry): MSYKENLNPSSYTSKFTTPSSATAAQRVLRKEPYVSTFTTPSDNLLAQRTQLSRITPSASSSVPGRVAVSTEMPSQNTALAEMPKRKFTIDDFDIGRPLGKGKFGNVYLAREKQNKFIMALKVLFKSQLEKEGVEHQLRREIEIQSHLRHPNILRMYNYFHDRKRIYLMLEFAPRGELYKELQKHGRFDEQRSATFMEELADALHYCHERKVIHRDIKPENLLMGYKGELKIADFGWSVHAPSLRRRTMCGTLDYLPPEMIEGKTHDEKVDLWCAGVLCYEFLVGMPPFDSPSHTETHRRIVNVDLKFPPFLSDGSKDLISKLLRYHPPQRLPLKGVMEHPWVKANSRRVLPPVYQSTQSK
Aurora kinase B, sequence (Q96GD4 whole entry): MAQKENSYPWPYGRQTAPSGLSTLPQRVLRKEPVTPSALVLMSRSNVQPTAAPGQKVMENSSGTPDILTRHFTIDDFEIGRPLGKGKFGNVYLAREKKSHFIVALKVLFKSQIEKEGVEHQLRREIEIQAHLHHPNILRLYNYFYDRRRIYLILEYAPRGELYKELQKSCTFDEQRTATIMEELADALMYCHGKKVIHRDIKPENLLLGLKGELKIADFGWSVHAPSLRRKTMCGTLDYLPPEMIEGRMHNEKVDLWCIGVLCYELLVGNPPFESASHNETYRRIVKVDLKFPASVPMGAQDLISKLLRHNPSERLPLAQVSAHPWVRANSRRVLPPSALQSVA

| IC50 (Aurora kinase B-A) | IC50 (Aurora kinase B) | IC50 (Aurora kinase A) | SMILES |
| --- | --- | --- | --- |
| 45 nM |  |  | COc1cc2c(Nc3ccc(NC(=O)c4ccccc4)cc3)ncnc2cc1OCCCN1CCOCC1 |
| 3 nM | 3 nM | 11 nM | CCS(=O)(=O)Nc1ccc2c(c1)/C(=C(/Nc1ccc(CN3CCCCC3)cc1)c1ccccc1)C(=O)N2 [HESPERADIN] |
| 19 nM |  |  | Cc1cc(Nc2cc(N3CCN(C)CC3)nc(Sc3ccc(NC(=O)C4CC4)cc3)n2)[nH]n1 [TOZASERTIB] |
